Results as given in US6191118A (Taisho Pharmaceutical Co., Ltd., priority 1996, dated 2001).
≈ marks a conversion by molar mass, not a printed value.

Legend:
Assay type in all cases: cell-based
S. aureus B1 = experiment: In vitro antibacterial activity (MIC), S. aureus B1; settings: Staphylococcus aureus, sensitive disc media, Japan Society of Chemotherapy method, read-out: MIC (Minimum Inhibitory Concentration)
Description: (§1) The in vitro antibacterial activity of the compound obtained in Example 4 as an example of the compound of the present invention against various experimental bacteria was measured using sensitive disc media (produced by Eiken Chemical Co.) according to the MIC measuring method specified by the Japan Society of Chemotherapy. Clarithromycin was used as a comparative drug.

[1] = system: erythromycin-sensitive bacteria; experiment: Antibacterial activity against erythromycin-sensitive bacteria (in words)
Description: as §1

S. pneumoniae IID 553 = experiment: In vitro antibacterial activity (MIC), S. pneumoniae IID 553; settings: Streptococcus pneumoniae, IID553, sensitive disc media, Japan Society of Chemotherapy method, read-out: MIC (Minimum Inhibitory Concentration)
Description: as §1

S. pneumoniae BM 210 = experiment: In vitro antibacterial activity (MIC), S. pneumoniae BM 210; settings: Streptococcus pneumoniae, BM210, sensitive disc media, Japan Society of Chemotherapy method, read-out: MIC (Minimum Inhibitory Concentration)
Description: as §1

[2] = system: erythromycin-resistant bacteria; experiment: Antibacterial activity against erythromycin-resistant bacteria (in words)
Description: as §1

S. pneumoniae BM 205 = experiment: In vitro antibacterial activity (MIC), S. pneumoniae BM 205; settings: Streptococcus pneumoniae, BM205, sensitive disc media, Japan Society of Chemotherapy method, read-out: MIC (Minimum Inhibitory Concentration)
Description: as §1

S. aureus Smith = experiment: In vitro antibacterial activity (MIC), S. aureus Smith; settings: Staphylococcus aureus, sensitive disc media, Japan Society of Chemotherapy method, read-out: MIC (Minimum Inhibitory Concentration)
Description: as §1

S. aureus J-109 = experiment: In vitro antibacterial activity (MIC), S. aureus J-109; settings: Staphylococcus aureus, J109, sensitive disc media, Japan Society of Chemotherapy method, read-out: MIC (Minimum Inhibitory Concentration)
Description: as §1

S. aureus 209P-JC = experiment: In vitro antibacterial activity (MIC), S. aureus 209P-JC; settings: Staphylococcus aureus, sensitive disc media, Japan Society of Chemotherapy method, read-out: MIC (Minimum Inhibitory Concentration)
Description: as §1

SMILES	MIC (S. aureus B1) [µg/mL]	antibacterial activity [1]	MIC (S. pneumoniae IID 553) [µg/mL]	MIC (S. pneumoniae BM 210) [µg/mL]	antibacterial activity [2]	MIC (S. pneumoniae BM 205) [µg/mL]	MIC (S. aureus Smith) [µg/mL]	MIC (S. aureus J-109) [µg/mL]	MIC (S. aureus 209P-JC) [µg/mL]
CC[C@H]1OC(=O)[C@H](C)[C@@H](OC(=O)Cc2ccccn2)[C@H](C)[C@@H](O[C@@H]2O[C@H](C)C[C@H](N(C)C)[C@H]2O)[C@](C)(OC)C[C@@H](C)C(=O)[C@H](C)[C@H]2N(CCN(C)Cc3cccnc3)C(=O)O[C@]12C [Example 4, 11-{2-[N-methyl-N-(3-pyridylmethyl)amino]ethyl}amino-11-deoxy-3-O-(2-pyridyl)acetyl-5-O-desosaminyl-6-O-methylerythronolide A 11,12-cyclic carbamate]	0.39 (≈ 0.442 µM)	strong antibacterial activity	0.1 (≈ 0.113 µM)	0.39 (≈ 0.442 µM)	strong antibacterial activity	0.39 (≈ 0.442 µM)	0.2 (≈ 0.227 µM)	> 100	0.1 (≈ 0.113 µM)
CC[C@H]1OC(=O)[C@H](C)[C@@H](O[C@H]2C[C@@](C)(OC)[C@@H](O)[C@H](C)O2)[C@H](C)[C@@H](O[C@@H]2O[C@H](C)C[C@H](N(C)C)[C@H]2O)[C@](C)(OC)C[C@@H](C)C(=O)[C@H](C)[C@@H](O)[C@]1(C)O [Comparative drug, Clarithromycin, reference compound]	> 100	–	0.1 (≈ 0.134 µM)	1.56 (≈ 2.09 µM)	–	> 100	–	> 100	–
